# Experimental data as given in ChEMBL document CHEMBL3425483, “Synthesis, characterization, hypoglycemic and aldose reductase inhibition activity of arylsulfonylspiro[fluorene-9,5'-imidazolidine]-2',4'-diones” (Eur J Med Chem, 2015).
# The source made the active and inactive calls. No cut-off for these calls is given here.
# What was measured:
# Bos taurus = organism: Bos taurus; assay: Selectivity index, ratio of IC50 for ALR1 in calf kidney to IC50 for ALR2 in calf lenses; format: tissue-based; conditions: Lens of camera-type eye
# [1] = target: Aldo-keto reductase family 1 member B1 (Bos taurus, UniProt P16116); assay: Inhibition of ALR2 in calf lenses using DL-glyceraldehyde as substrate treated with compound for 10 mins prior to substrate addition by UV spectrophotometer analysis; parameters: species or system Lens of camera-type eye
# Mus musculus [2] = assay: In-vivo hypoglycemic activity in alloxan-pretreated diabetic BALB/c mouse assessed as blood glucose level after 6 hrs by glucometer analysis (reference value: 239.0 to 444.4 mg/dl); format: functional
# Mus musculus [3] = assay: In-vivo hypoglycemic activity in alloxan-pretreated diabetic BALB/c mouse assessed as blood glucose level after 4 hrs by glucometer analysis (reference value: 239.0 to 444.4 mg/dl); format: functional
# [4] = Retardation factor of the compound using petroleum ether/ethylacetate (6:4) as solvent system by TLC; format: physicochemical
# [5] = target: Aldo-keto reductase family 1 member A1 (Bos taurus, UniProt Q3ZCJ2); assay: Inhibition of ALR1 in calf kidney using sodium D-glucoronate as substrate treated with compound for 10 mins prior to substrate addition by UV spectrophotometer analysis
# Sequence of Aldo-keto reductase family 1 member A1 (Q3ZCJ2 2-325 limits assumed): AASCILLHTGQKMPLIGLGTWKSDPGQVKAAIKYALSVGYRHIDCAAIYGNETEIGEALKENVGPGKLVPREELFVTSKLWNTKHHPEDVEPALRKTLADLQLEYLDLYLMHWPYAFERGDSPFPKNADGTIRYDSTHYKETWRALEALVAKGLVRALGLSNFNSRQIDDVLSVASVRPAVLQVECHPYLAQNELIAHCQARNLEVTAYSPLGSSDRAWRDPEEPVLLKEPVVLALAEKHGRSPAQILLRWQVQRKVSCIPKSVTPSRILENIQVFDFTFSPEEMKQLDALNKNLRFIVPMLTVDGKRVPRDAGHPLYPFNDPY
# Mus musculus [6] = assay: In-vivo hypoglycemic activity in alloxan-pretreated diabetic BALB/c mouse assessed as blood glucose level after 2 hrs by glucometer analysis (reference value: 239.0 to 444.4 mg/dl); format: functional
# Mus musculus [7] = assay: In-vivo hypoglycemic activity in alloxan-pretreated diabetic BALB/c mouse assessed as decrease in blood glucose level after 8 hrs by glucometer analysis; format: functional
# Mus musculus [8] = assay: In-vivo hypoglycemic activity in alloxan-pretreated diabetic BALB/c mouse assessed as blood glucose level after 8 hrs by glucometer analysis (reference value: 239.0 to 444.4 mg/dl); format: functional
# [9] = target: Aldo-keto reductase family 1 member B1 (Bos taurus) (UniProt P16116); assay: Uncompetitive inhibition of ALR2 in calf lenses using DL-glyceraldehyde as substrate at 20 uM by Lineweaver-Burk plot analysis; conditions: Lens of camera-type eye
# [10] = system: aldehyde reductase (ALR1), Bos taurus; assay: Inhibition of ALR1 in calf kidney using sodium D-glucoronate as substrate at 0.6 mM treated with compound for 10 mins prior to substrate addition by UV spectrophotometer analysis
# Mus musculus [11] = assay: In-vivo hypoglycemic activity in alloxan-pretreated diabetic BALB/c mouse assessed as blood glucose level at 10 mg/kg after 4 hrs by glucometer analysis (reference value: 385.2 +/- 8.94 mg/dl); format: functional
# Mus musculus [12] = assay: In-vivo hypoglycemic activity in alloxan-pretreated diabetic BALB/c mouse assessed as blood glucose level at 10 mg/kg after 8 hrs by glucometer analysis; format: functional
# Mus musculus [13] = assay: In-vivo hypoglycemic activity in alloxan-pretreated diabetic BALB/c mouse assessed as blood glucose level at 10 mg/kg after 2 hrs by glucometer analysis (reference value: 385.2 +/- 8.94 mg/dl); format: functional
# Mus musculus [14] = assay: In-vivo hypoglycemic activity in alloxan-pretreated diabetic BALB/c mouse assessed as blood glucose level at 10 mg/kg after 8 hrs by glucometer analysis (reference value: 385.2 +/- 8.94 mg/dl); format: functional
# Mus musculus [15] = assay: In-vivo hypoglycemic activity in alloxan-pretreated diabetic BALB/c mouse assessed as blood glucose level at 10 mg/kg after 6 hrs by glucometer analysis (reference value: 385.2 +/- 8.94 mg/dl); format: functional
# [16] = target: Aldo-keto reductase family 1 member B1 (Bos taurus) (UniProt P16116); assay: Inhibition of ALR2 in calf lenses using DL-glyceraldehyde as substrate at 0.6 mM treated with compound for 10 mins prior to substrate addition by UV spectrophotometer analysis; conditions: Lens of camera-type eye
Structure (SMILES),Ratio IC50 (Bos taurus),IC50 [1] [µM],Activity (Mus musculus [2]) [mg/dL],Activity (Mus musculus [3]) [mg/dL],Rf [4],IC50 [5] [µM],Activity (Mus musculus [6]) [mg/dL],inhibition (INH) (Mus musculus [7]) [%],Activity (Mus musculus [8]) [mg/dL],inhibition [9],inhibition [10] [%],Activity (Mus musculus [11]) [mg/dL],inhibition in vivo at 10 mg/kg (Mus musculus [12]) [%],Activity (Mus musculus [13]) [mg/dL],Activity (Mus musculus [14]) [mg/dL],Activity (Mus musculus [15]) [mg/dL],inhibition [16] [%]
O=C1NC2(C(=O)N1S(=O)(=O)c1ccc([N+](=O)[O-])cc1)c1ccccc1-c1ccccc12,1.95,1.8,175.2,190.4,0.35,3.51,226.6,55.25,121.8,–,–,–,–,–,–,–,–
O=C1c2ccccc2C(=O)c2cc(S(=O)(=O)N3C(=O)NC(=O)C34c3ccccc3-c3ccccc34)ccc21,1.97,10.3,522.2,500,0.44,20.3,467,–,544.6,–,–,–,–,–,–,–,–
O=C1NC(=O)C2(c3ccccc3-c3ccccc32)N1S(=O)(=O)c1ccc(Cl)cc1,9.68,1.72,323.4,289,0.2,12.1,259.8,–,355,–,–,–,–,–,–,–,–
COc1ccc(S(=O)(=O)N2C(=O)NC3(C2=O)c2ccccc2-c2ccccc23)cc1,25.6,1.02,402.8,376,0.42,26.1,380.2,–,418.8,–,–,–,–,–,–,–,–
O=C1NC(=O)C2(c3ccccc3-c3ccccc32)N1S(=O)(=O)c1ccc(Br)cc1,2.97,3.86,115.8,168,0.33,11.5,217,70.55,72.8,–,–,–,–,–,–,–,–
O=C1NC(=O)C2(c3ccccc3-c3ccccc32)N1S(=O)(=O)c1ccc([N+](=O)[O-])cc1,–,7.88,176.8,189.4,0.31,12.3,226.6,62.86,138.2,–,–,–,–,–,–,–,–
O=C1NC2(C(=O)N1S(=O)(=O)c1ccc(Cl)cc1)c1ccccc1-c1ccccc12,53.8,0.89,78.8,160.4,0.31,–,232,72.24,68,Active,47.9,–,–,–,–,–,–
O=C1NC2(C(=O)N1S(=O)(=O)c1ccc(Br)cc1)c1ccccc1-c1ccccc12,9.68,5.37,339.5,297.2,0.31,–,266.5,73.72,63.5,–,52,–,–,–,–,–,–
Cc1ccc(S(=O)(=O)N2C(=O)NC3(C2=O)c2ccccc2-c2ccccc23)cc1,1.81,2.84,146.6,180,0.27,5.15,229.3,48.28,123.6,–,–,–,–,–,–,–,–
O=C1c2ccccc2C(=O)c2cc(S(=O)(=O)N3C(=O)NC4(C3=O)c3ccccc3-c3ccccc34)ccc21,2.41,11.3,400.4,336.4,0.47,–,305.8,–,442.6,–,44.9,–,–,–,–,–,–
COc1ccc(S(=O)(=O)N2C(=O)NC(=O)C23c2ccccc2-c2ccccc23)cc1,2.39,5.8,143.6,205.6,0.43,13.9,275.6,66.38,129,–,–,–,–,–,–,–,–
COc1ccc(Cl)cc1C(=O)NCCc1ccc(S(=O)(=O)NC(=O)NC2CCCCC2)cc1 [GLYBURIDE],–,–,–,–,–,–,–,–,–,–,–,229.3,60.9,289.1,150.5,170.7,–
O=C1NC(=O)C2(c3ccccc3-c3ccccc32)N1S(=O)(=O)c1ccc2ccccc2c1,0.45,27.3,138.5,197.3,0.41,12.5,271.2,64.13,135,–,–,–,–,–,–,–,–
O=C1NC2(C(=O)N1S(=O)(=O)c1ccc3ccccc3c1)c1ccccc1-c1ccccc12,–,–,123,206,0.44,–,277,66.44,108.6,–,47.9,–,–,–,–,–,52
Cc1ccc(S(=O)(=O)N2C(=O)NC(=O)C23c2ccccc2-c2ccccc23)cc1,3.84,2.29,152.2,239.4,0.25,8.8,286.2,61.67,116.2,–,–,–,–,–,–,–,–
